Results on one molecule are retold here after patent US20140272949A1, “Methods for Fully Segregating Recombinant Marine Cyanobacteria” (ALGENOL BIOFUELS INC., priority 2013, published 2014).

The assay has as its system PCC7002:pAB125 clones. Briefly: Growth on low salt spectinomycin segregation plates. It is filed as cell-based, Synechococcus sp. strain PCC 7002. The protocol: 1 mL of the culture was washed once in BG-11 (2.500×g, 10 min spin) and streaked for single colonies on low salt media (BG-11+vB12) plates with various spectinomycin concentrations (sp15, 30, 60, 120, 240, 300, 360, and 500 μg/mL). These segregation plates were incubated at room temperature with low light overnight and then at 37° C. with continuous light or with a 12 h/12 h light/dark cycle for approximately 2 weeks.

`CN[C@@H]1[C@H](O)[C@H](NC)[C@H]2O[C@@]3(O)C(=O)C[C@@H](C)O[C@H]3O[C@@H]2[C@H]1O` [spectinomycin]: the “growth on low salt plates” value is given as “single colonies formed” (240 and 300 mg/L of spectinomycin, BG-11+vB12, about 2 weeks); “No colonies were found” (higher spectinomycin concentrations (360, 500 μg/mL), BG-11+vB12); “abundant growth” (spectinomycin at 15 to 120 mg/L, BG-11+vB12, about 2 weeks).
